{
  "source": "paper PMC7572767",
  "about": "(Psychopharmacology, 2020)",
  "molecular_target": "norepinephrine transporter (NET) (Homo sapiens, UniProt P23975)",
  "sequence (P23975 whole entry)": "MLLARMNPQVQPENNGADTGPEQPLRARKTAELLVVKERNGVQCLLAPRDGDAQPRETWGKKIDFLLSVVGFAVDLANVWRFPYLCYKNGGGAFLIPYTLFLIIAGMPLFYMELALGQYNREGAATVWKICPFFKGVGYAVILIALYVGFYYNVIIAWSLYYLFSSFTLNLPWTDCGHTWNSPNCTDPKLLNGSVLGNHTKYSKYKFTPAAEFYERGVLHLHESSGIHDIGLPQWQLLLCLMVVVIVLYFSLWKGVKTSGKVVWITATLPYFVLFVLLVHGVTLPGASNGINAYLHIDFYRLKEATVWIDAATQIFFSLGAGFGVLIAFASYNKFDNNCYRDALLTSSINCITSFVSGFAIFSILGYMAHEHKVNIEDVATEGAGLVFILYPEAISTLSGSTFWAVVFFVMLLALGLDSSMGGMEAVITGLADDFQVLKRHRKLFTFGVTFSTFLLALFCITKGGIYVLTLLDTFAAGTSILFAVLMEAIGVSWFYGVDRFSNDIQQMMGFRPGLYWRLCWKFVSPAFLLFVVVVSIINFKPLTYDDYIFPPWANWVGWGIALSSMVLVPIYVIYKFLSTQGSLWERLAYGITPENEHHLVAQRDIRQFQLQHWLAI",
  "test": "fluorescent substrate uptake inhibition in HEK293 cells stably expressing NET",
  "assay_type": "cell-based",
  "data": [
    {"molecule": "[O-][S@@+](Cc1cncs1)[C@@H](c1ccccc1)c1cccc(Br)c1", "note": "[(S, S)-CE-158, 5-(((S)-((S)-(3-bromophenyl)(phenyl)methyl)sulfinyl)methyl)thiazole]", "values": [
      {"measurement": "IC50", "value": 12, "unit": "µM"}
    ]}
  ]
}
